Results as given in article PMC4556614 (PLoS ONE, 2015).

Experiments:
OCT2 [1] = biological target: T1, OCT2 (Homo sapiens, UniProt O15244); assay: in vitro; settings: human; for % Inhibition of OCT2-dependent MF uptake at 20 µM (mean ± SEM) / % Inhibition of OCT2-dependent MF uptake at 200 µM (mean ± SEM): pH 7.3; for inhibition at 3 min, 20 µM / inhibition at 3 min, 200 µM: pH 7.3, probe [14C]metformin, 1000 µM, metformin 1000 μM, net uptake HEK-OCT2 minus HEK-VC; for inhibition at 3 min, 20 µM: % Inhibition of OCT2-dependent MF uptake at 20 µM (mean ± SEM), test drug 20 µM; for inhibition at 3 min, 200 µM: % Inhibition of OCT2-dependent MF uptake at 200 µM (mean ± SEM), test drug 200 µM
OCT2 [2] = biological target: T1, OCT2; assay: Inhibition of OCT2-mediated [3H]MPP+ uptake in HEK-OCT2 cells; settings: for inhibition at 3 min, 20 µM / inhibition at 3 min, 200 µM: pH 7.3, probe [3H]MPP+, 50 µM
[3] = test drug 20 µM, MPP+ 50 μM, 3 min, net uptake HEK-OCT2 minus HEK-VC
[4] = test drug 200 µM, MPP+ 50 μM, 3 min, net uptake HEK-OCT2 minus HEK-VC

T1 sequence (O15244 whole entry): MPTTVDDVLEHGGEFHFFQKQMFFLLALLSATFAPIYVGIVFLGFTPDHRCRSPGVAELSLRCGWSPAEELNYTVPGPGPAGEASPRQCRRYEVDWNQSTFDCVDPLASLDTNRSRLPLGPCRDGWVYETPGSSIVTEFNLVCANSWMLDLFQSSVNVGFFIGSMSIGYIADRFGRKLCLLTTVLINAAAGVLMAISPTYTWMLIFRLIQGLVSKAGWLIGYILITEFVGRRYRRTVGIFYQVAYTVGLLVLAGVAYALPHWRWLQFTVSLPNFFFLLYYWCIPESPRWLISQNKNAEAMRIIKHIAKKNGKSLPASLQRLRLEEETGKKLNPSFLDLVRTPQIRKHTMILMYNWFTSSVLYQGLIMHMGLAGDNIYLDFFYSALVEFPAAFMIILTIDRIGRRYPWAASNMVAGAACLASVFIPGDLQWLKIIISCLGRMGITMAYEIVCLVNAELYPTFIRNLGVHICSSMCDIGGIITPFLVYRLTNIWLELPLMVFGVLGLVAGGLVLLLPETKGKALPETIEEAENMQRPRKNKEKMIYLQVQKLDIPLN

| Compound | % Inhibition of OCT2-dependent MF uptake at 20 µM (mean ± SEM) (OCT2 [1]) | % Inhibition of OCT2-dependent MF uptake at 200 µM (mean ± SEM) (OCT2 [1]) | % Inhibition of OCT2-dependent MPP+ uptake at 20 µM (mean ± SEM) (OCT2 [2]; human, pH 7.3) | % Inhibition of OCT2-dependent MPP+ uptake at 200 µM (mean ± SEM) (OCT2 [2]; human, pH 7.3) | % Inhibition of OCT2-dependent MPP+ uptake at 20 µM (mean ± SEM) (OCT2 [2]; [3]) [%] | % Inhibition of OCT2-dependent MPP+ uptake at 200 µM (mean ± SEM) (OCT2 [2]; [4]) [%] | inhibition at 3 min, 20 µM (OCT2 [1]) [%] | inhibition at 3 min, 200 µM (OCT2 [1]) [%] | inhibition at 3 min, 20 µM (OCT2 [2]; human) [%] | inhibition at 3 min, 200 µM (OCT2 [2]; human) [%] | % Inhibition of OCT2-dependent MPP+ uptake at 20 µM (mean ± SEM) (OCT2 [2]; test drug 20 µM, MPP+ 50 μM, 3 min, net uptake HEK-OCT2 minus HEK-VC, listed as olanzapine) |
| --- | --- | --- | --- | --- | --- | --- | --- | --- | --- | --- | --- |
| CN1C(=O)C(O)N=C(c2ccccc2Cl)c2cc(Cl)ccc21 (centres unmarked) [Lormetazepam] | 77.0 ± 0.6 | 92.4 ± 0.5 | 47.8 ± 8.4 | 69.8 ± 5.3 |  |  |  |  |  |  |  |
| CCCCc1nc(Cl)c(CO)n1Cc1ccc(-c2ccccc2-c2nn[nH]n2)cc1 [Losartan] | -9.3 ± 10.4 | 7.4 ± 8.2 |  |  | -41.8 ± 8.1 | -59.5 ± 6.1 |  |  |  |  |  |
| CC1CCN(CCCC(=O)c2ccc(F)cc2)CC1 [Melperone] | 75.0 ± 3.4 | 94.9 ± 4.2 |  |  | 8.6 ± 10.1 | 69.7 ± 3.8 |  |  |  |  |  |
| CC12CC3CC(C)(C1)CC(N)(C3)C2 [Memantine] | 54.0 ± 2.1 | 93.9 ± 0.6 |  |  | 20.6 ± 8.6 | 54.0 ± 7.0 |  |  |  |  |  |
| Nc1ccc(O)c(C(=O)O)c1 [Mesalazine] | 21.6 ± 11.1 | 59.8 ± 6.7 |  |  | -51.3 ± 6.1 | -68.0 ± 8.5 |  |  |  |  |  |
| Cc1c(N(C)CS(=O)(=O)O)c(=O)n(-c2ccccc2)n1C [Metamizole] | -4.8 ± 6.4 | 8.4 ± 9.8 |  |  | -31.6 ± 6.0 | -39.1 ± 5.1 |  |  |  |  |  |
| CCC(=O)C(CC(C)N(C)C)(c1ccccc1)c1ccccc1 (centres unmarked) [Methadone] |  | 99.3 ± 0.3 |  |  | 8.9 ± 4.4 | 68.7 ± 3.8 |  |  |  |  |  |
| CN(Cc1cnc2nc(N)nc(N)c2n1)c1ccc(C(=O)N[C@@H](CCC(=O)O)C(=O)O)cc1 [Methotrexate] | -1.1 ± 11.4 | -5.8 ± 13.0 |  |  | -19.0 ± 7.2 | -9.5 ± 3.0 |  |  |  |  |  |
| COC(=O)C(c1ccccc1)C1CCCCN1 (centres unmarked) [Methylphenidate] | 17.9 ± 4.6 | 79.6 ± 2.3 | 11.5 ± 8.9 | 31.6 ± 4.7 |  |  |  |  |  |  |  |
| CCN(CC)CCNC(=O)c1cc(Cl)c(N)cc1OC [Metoclopramide] | 74.7 ± 8.5 | 93.9 ± 0.6 |  |  | 24.5 ± 2.9 | 66.6 ± 8.4 |  |  |  |  |  |
| COCCc1ccc(OCC(O)CNC(C)C)cc1 (centres unmarked) [Metoprolol] | 50.5 ± 5.9 | 88.2 ± 1.7 |  |  | 23.2 ± 6.5 | 27.5 ± 6.9 |  |  |  |  |  |
| CN1CCN2c3ncccc3Cc3ccccc3C2C1 (centres unmarked) [Mirtazapine] | 73.3 ± 3.0 | 90.7 ± 3.9 |  |  | -4.8 ± 4.0 | 57.6 ± 6.1 |  |  |  |  |  |
| O=C(NCCN1CCOCC1)c1ccc(Cl)cc1 [Moclobemide] | 4.3 ± 2.8 | 48.9 ± 2.1 |  |  | -38.7 ± 8.5 | -16.1 ± 17.7 |  |  |  |  |  |
| CCOC(=O)[N-]c1cn(N2CCOCC2)n[o+]1 [Molsidomine] | 41.4 ± 3.6 | 69.5 ± 1.7 |  |  | -1.7 ± 8.3 | 3.8 ± 4.9 |  |  |  |  |  |
| COc1nc(C)nc(Cl)c1N=C1NCCN1 [Moxonidine] |  |  |  |  |  |  | 58.1 ± 14.5 | 86.1 ± 2.9 | 16.3 ± 6.5 | 23.1 ± 7.1 |  |
| OC(CNCC(O)C1CCc2cc(F)ccc2O1)C1CCc2cc(F)ccc2O1 (centres unmarked) [Nebivolol] | 61.4 ± 10.4 | 75.2 ± 10.8 |  |  | -13.7 ± 13.3 | 43.2 ± 3.3 |  |  |  |  |  |
| CCOC(=O)C1=C(C)NC(C)=C(C(=O)OC)C1c1cccc([N+](=O)[O-])c1 (centres unmarked) [Nitrendipine] | 0.4 ± 9.8 | 53.2 ± 3.7 |  |  | 4.0 ± 6.3 | -2.4 ± 5.0 |  |  |  |  |  |
| C#C[C@]1(O)CC[C@H]2[C@@H]3CCC4=CC(=O)CC[C@@H]4[C@H]3CC[C@@]21C [Norethindrone] | 41.0 ± 11.0 | 87.7 ± 6.1 |  |  | -29.4 ± 6.4 | 3.0 ± 3.3 |  |  |  |  |  |
| Cc1cc2c(s1)Nc1ccccc1N=C2N1CCN(C)CC1 [Olanzapine] | -7.5 ± 5.7 | 74.9 ± 1.8 |  |  | 83.5 ± 9.4 | 109.7 ± 2.8 |  |  |  |  | most potent inhibitors |
| CCCc1nc(C(C)(C)O)c(C(=O)O)n1Cc1ccc(-c2ccccc2-c2nnn[nH]2)cc1 [Olmesartan] |  |  |  |  |  |  | -0.1 ± 10.9 | 21.1 ± 7.3 | -23.8 ± 7.1 | -21.9 ± 13.3 |  |
| OCCN1CCN(CCCN2c3ccccc3C=Cc3ccccc32)CC1 [Opipramol] |  | 99.5 ± 0.7 |  |  | 14.0 ± 7.6 | 81.6 ± 3.9 |  |  |  |  |  |
